Values joined by “and” are separate entries in the source; they are usually repeats but may differ in a detail not shown here. Equal values may be shown once.
Columns and labels:
[1] = Subchronic OEA administration in rats (7 days): food intake, body weight, water intake; format: in vivo, rat; conditions: 5 mg per kg i.p. daily for seven days
Procedure: Feeding experiments. Acute experiments. Food intake was measured in 24-h food-deprived rats (Navarro, et al., J. Neurochem., 67:1982-1991 (1996)), administering drugs 15 min before food presentation. Subchronic experiments. Ad libitum fed rats received vehicle injections for three days. On day four, the animals were divided in two equal groups and gave them daily injections of vehicle or OEA (5 mg per kg at 1900 h) for 7 consecutive days, while measuring body weight, food intake and water intake.
In this example, OEA was subchronically administered to rats.

[2] = Food intake in capsaicin-treated (sensory deafferented) rats, Example 2; format: in vivo, rat; conditions: OEA 10 mg per kg i.p.
Procedure: FAE were dissolved in dimethylsulphoxide (DMSO) and administered in 70% DMSO in sterile saline (acute treatments) Or 5% Tween 80/5% propylenglycol in sterile saline (subchronic treatments) (1 ml per kg, i.p.). Capsaicin was administered in 10% Tween 80/10% ethanol/80% saline; SR141716A, SR144528, CCK-8 and CP-93129 in 5% Tween 80/5% propylenglycol/90% saline (1 ml per kg, i.p.).

c-fos mRNA = c-fos mRNA in situ hybridization in rat brain; format: in vivo; conditions: 10 mg per kg i.p., 60 min; PVN, supraoptic nucleus, NST
Procedure: In situ hybridization. Rats were accustomed to the handling and injection procedure for five days. On day six, vehicle or drug OEA (10 mg per kg, i.p.), or oleic acid (10 mg per kg) was administered, and the rats killed 60 min later by decapitation under anesthesia. In situ hybridization analyses were conducted using ^35S-labeled cRNA probes for c-fos (Guthrie et al., Proc. Natl. Acad. Sci. U.S.A., 90:3329-3333 (1993)) and choline acetyl transferase (ChAT) (Lauterborn et al., Brain Res. Mol. Brain Res., 17:59-69 (1993)). Average hybridization densities were determined from at least three tissue sections per rat. Statistical significance was evaluated using one-way analysis of variance (ANOVA) followed by the Tukey-Kramer post-hoc test for paired comparisons.
The compounds of the invention may use peripheral sensory inputs to suppress appetite. Peripheral sensory inputs related to appetite suppression recruit several CNS structures, which include the nucleus of the solitary tract (NST) in the brainstem and the arcuate and paraventricular (PVN) Nuclei in the hypothalamus (Schwartz et al., Nature, 404:661-671 (2000)). To identify the brain pathways engaged during OEA-induced hypophagia, mRNA levels for the activity regulated gene c-fos (Curran et al., Oncogene, 2:79-84 (1987)) were mapped by in situ hybridization after systemic administration of OEA, oleic acid or vehicle. […]

[3] = Operant responses for food; format: in vivo, rat; conditions: at a dose substantially higher than those required to produce hypophagia
Source text: Operant responses for food. Rats were trained to lever press for food on a fixed ratio 1 (FR1) schedule of reinforcement, while food-restricted at 20 g of chow per rat per day (Rodriguez de Fonseca, et al., Acta Pharmacol. Sin., 20:1109-1114 (1999)). Once stable responding was achieved, the animals were trained to acquire an FR5, time out 2-min schedule of food reinforcement and kept in limited access to food. When a stable baseline was obtained, the animals were used to test the effects of vehicle or OEA (1, 5 or 20 mg per kg) administered 15 min before lever presentation. Test duration was 60 min.

Hepatocyte = test: [14C]oleate oxidation to ketone bodies in hepatocytes; format: cell-based, rat; conditions: 10 min incubation
Source text: OEA-like compounds and modulators can be used to modulate fat metabolism. Such compounds can also be assayed for their effect on fatty acid metabolism. The effect of the candidate compound on fatty acid metabolism can be measured by measurements of fatty acid oxidation in primary cultures of liver cells. Hepatocytes may be used to determine the rate of oleate oxidation to ketone bodies and carbon dioxide. Such cells can be isolated from adult rat liver by enzymatic digestion as described by Beynen et al. in Diabetes 28:828 (1979). Cells typically are cultured in suspension and incubated in Krebs-Henseleit's bicarbonate medium supplemented with bovine serum albumin and glucose as described by Guzman & Geelen, Biochem. J., 287:487 (1992). The protein concentration of the cultured cells can be determined and cells seeded in 2 ml media so that 4-6 mg protein per ml is present in the reaction mixture. […] Protein concentration can be determined using a Lowry assay. The rate of oleate conversion into ketone bodies may be expressed as nmol of oleate oxidized per hour per mg protein and may be determined using liquid scintillation counting. […]

[4] = Subchronic OEA in high-fat-fed obese wild-type and PPARα null mice; format: in vivo, mouse; conditions: 4 weeks; for hypercholesterolemia (serum cholesterol): 5 mg-kg^−1 once daily i.p.
Procedure: Subchronic experiments. Male wild-type and PPARα null mice were fed with a very high-fat diet (60 kcal % fat; D12492; Research Diets, NJ). […] The mice were divided into 4 groups (n=7-8 each), and treated them for 4 additional weeks with vehicle (saline/polyethylene glycol/Tween 80, 90/5/5; 1 ml-kg^−1) Or OEA (5 mg-kg^−1, once daily, i.p.). In a separate experiment, obese Zucker rats were treated for 2 weeks with vehicle or OEA (5 mg-kg^−1, once daily, i.p.), while maintaining them on a regular rodent chow (RMH 2500, Prolab). Food intake and body weight were measured daily. At the end of the experiments, the animals were fasted overnight, and tissues and blood samples collected for biochemical analyses.
Lipids were extracted from mouse liver and epidydimal adipose tissue (Bligh and Dyer, 1959) and measured triglycerides with a commercial kit (Sigma). Serum lipids and glucose were measured with an automated Synchron LX® system (Beckman-Coulter).

[5] = obese wild-type mice, 5 mg-kg^−1 i.p. daily

SMILES: CCCCCCCC/C=C\CCCCCCCC(=O)NCCO [OEA, Z-2-hydroxyethyl octadec-9-enamide]
- cumulative food intake [1]: small, but significant decrease
- water intake [1]: did not affect
- weight gain [1]: profound inhibition of weight gain
- feeding response in capsaicin-treated rats [2]: failed to respond
- c-fos mRNA levels in brain regions (c-fos mRNA): highly localized increase
- operant responses for food [3]: reduced
- Stimulatory effect of 10 μM OEA on [14C]oleate oxidation to ketone bodies (Hepatocyte): 21+−6% and 21 ± 6 (n = 4) %
- hypercholesterolemia (serum cholesterol) ([4]; high fat-fed PPARα-null mice): ineffective
- hypercholesterolemia (serum cholesterol) ([4]; high fat-fed wild-type mice): partially corrected
- cumulative food intake and body-weight gain ([4]; obese PPARα deficient mice, 5 mg-kg^−1 i.p. daily): no such effect
- body-weight gain [4, 5]: suppressed
- cumulative food intake (normalized for body mass) [4, 5]: significantly reduced

From US20050101542A1, “Combination therapy for controlling appetites” (Regents of the University of California, priority 2002, published 2005)
